Measurements: patent publication US10597388B2, “Pyridazinone herbicides” (FMC CORPORATION, priority 2014, dated 2020)

Legend:
Assay type in all cases: in vivo
[1] = tested on: wheat (Triticum aestivum); test: Test A greenhouse herbicide test, pre- and postemergence; details: Postemergence
Summary of the method: (§1)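 Visual injury ratings, 0 (no effect) to 100 (complete control), versus untreated plants after roughly 10 d in a greenhouse. Compounds, formulated in a surfactant-containing non-phytotoxic solvent, were sprayed on loam–sand soil after sowing (pre) or on one- to two-leaf plants 2–10 cm tall (post).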

[2] = tested on: foxtail, giant (giant foxtail, Setaria faberii); test: as above
Summary of the method: as §1

[3] = tested on: ragweed (common ragweed, Ambrosia elatior); test: as above
Summary of the method: as §1

[4] = tested on: pigweed (Amaranthus retroflexus); test: as above
Summary of the method: as §1

kochia (Kochia scoparia) = test: as above
Summary of the method: as §1

[5] = tested on: blackgrass (Alopecurus myosuroides); test: Test C greenhouse herbicide test, pre- and postemergence
Summary of the method: (§2)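 Percent-control ratings (0 none, 100 complete) came from visual comparison with controls held alongside in the greenhouse for 13–15 d. Treatments covered soil application at sowing and foliar application to young plants 2–18 cm tall.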

[6] = tested on: velvetleaf (Abutilon theophrasti); test: as above
Summary of the method: as §2

corn (Zea mays) = test: as above
Summary of the method: as §2

[7] = tested on: morningglory (Ipomoea coccinea); test: as above
Summary of the method: as §2

[8] = tested on: ryegrass, Italian (Italian ryegrass, Lolium multiflorum); test: as above
Summary of the method: as §2

[9] = tested on: pigweed (Amaranthus retroflexus); test: as above
Summary of the method: as §2

[10] = 125 g ai/ha, 0 to 100 scale where 0 is no effect and 100 is complete control
[11] = 500 g ai/ha, visual rating after approx. 10 d, 0 to 100 scale (0 no effect, 100 complete control)
[12] = Postemergence, 125 g ai/ha, 0 to 100 scale where 0 is no effect and 100 is complete control
[13] = Postemergence, 500 g ai/ha, visual rating after approx. 10 d, 0 to 100 scale (0 no effect, 100 complete control)
[14] = Preemergence, 125 g ai/ha, 0 to 100 scale where 0 is no effect and 100 is complete control
[15] = Preemergence, 500 g ai/ha, 0 to 100 scale where 0 is no effect and 100 is complete control
[16] = Postemergence, 31 g ai/ha, scale 0 to 100 (0 no effect, 100 complete control)
[17] = Postemergence, 62 g ai/ha, 0 to 100 scale (0 no effect, 100 complete control)
[18] = Postemergence, 250 g ai/ha, scale 0 to 100, 0 no effect, 100 complete control, 13 to 15 d
[19] = Preemergence, 31 g ai/ha, scale 0 to 100, 0 is no effect, 100 is complete control
[20] = Preemergence, 62 g ai/ha, scale 0 to 100, 0 is no effect, 100 is complete control
[21] = Preemergence, 125 g ai/ha, scale 0 to 100, 0 is no effect, 100 is complete control
[22] = Preemergence, 250 g ai/ha, scale 0 to 100, 0 no effect, 100 complete control
[23] = postemergence, 125 g ai/ha, scale 0 to 100, 0 no effect, 100 complete control

COC(=O)Oc1c(OC)nn(C)c(=O)c1-c1c(C)ccc2ccccc12 [Compound 136]
0: Plant response rating, Wheat [1, 10] | Plant response rating, Corn (corn (Zea mays); [16]) | Plant response rating, Corn (corn (Zea mays); [19]) | Plant response rating, Corn (corn (Zea mays); [21])
80: Foxtail, Giant plant response rating [2, 14] | Ragweed plant response rating [3, 14] | Plant response rating, Blackgrass [5, 20] | Plant response rating, Morningglory [7, 19] | Pigweed plant response rating [9, 17]
50: Plant response rating, Ryegrass, Italian [8, 19]
95: Velvetleaf plant response rating [6, 17] | Plant response rating, Velvetleaf [6, 20] | Plant response rating, Morningglory [7, 20]
85: Plant response rating, Ryegrass, Italian [8, 21] | Pigweed plant response rating [9, 23]
98: Plant response rating, Velvetleaf [6, 18] | Plant response rating, Morningglory [7, 16] | Morningglory plant response rating [7, 17] | Plant response rating, Morningglory [7, 21] | Morningglory plant response rating [7, 22] | Plant response rating, Pigweed [9, 18]
5: Blackgrass plant response rating [5, 17] | Corn plant response rating (corn (Zea mays); [17]) | Plant response rating, Corn (corn (Zea mays); [20]) | Corn plant response rating (corn (Zea mays); [22]) | Plant response rating, Ryegrass, Italian [8, 16]
75: Plant response rating, Velvetleaf [6, 16] | Plant response rating, Velvetleaf [6, 19] | Plant response rating, Pigweed [9, 16]
35: Plant response rating, Ryegrass, Italian [8, 18]
100: Plant response rating, Foxtail, Giant [2, 13] | Plant response rating, Foxtail, Giant [2, 15] | Plant response rating, Ragweed [3, 12] | Plant response rating, Ragweed [3, 13] | Plant response rating, Pigweed [4, 13] | Pigweed plant response rating [4, 14] | Plant response rating, Pigweed [4, 15] | Plant response rating, Kochia (kochia (Kochia scoparia); [12]) | Plant response rating, Kochia (kochia (Kochia scoparia); [13]) | Plant response rating, Velvetleaf [6, 21] | Velvetleaf plant response rating [6, 22] | Plant response rating, Morningglory [7, 18] | Morningglory plant response rating [7, 23] | Plant response rating, Pigweed [9, 19] | Plant response rating, Pigweed [9, 20] | Plant response rating, Pigweed [9, 21] | Pigweed plant response rating [9, 22]
10: Plant response rating, Blackgrass [5, 16] | Plant response rating, Corn (corn (Zea mays); [18]) | Corn plant response rating (corn (Zea mays); [23]) | Ryegrass, Italian plant response rating [8, 17]
70: Plant response rating, Blackgrass [5, 19] | Plant response rating, Blackgrass [5, 21]
45: Plant response rating, Blackgrass [5, 18]
55: Plant response rating, Ryegrass, Italian [8, 20]
90: Plant response rating, Foxtail, Giant [2, 12] | Plant response rating, Ragweed [3, 15] | Plant response rating, Pigweed [4, 12] | Plant response rating, Kochia (kochia (Kochia scoparia); [15]) | Blackgrass plant response rating [5, 22] | Velvetleaf plant response rating [6, 23] | Ryegrass, Italian plant response rating [8, 22]
60: Kochia plant response rating (kochia (Kochia scoparia); [14])
30: Plant response rating, Wheat [1, 11] | Blackgrass plant response rating [5, 23] | Ryegrass, Italian plant response rating [8, 23]

Cc1nn(C)c(=O)c(-c2ccc(Cl)c3ccccc23)c1O [Compound 139]
100: Plant response rating, Foxtail, Giant [2, 13] | Plant response rating, Foxtail, Giant [2, 15] | Plant response rating, Ragweed [3, 12] | Plant response rating, Ragweed [3, 13] | Plant response rating, Ragweed [3, 15] | Plant response rating, Pigweed [4, 13] | Pigweed plant response rating [4, 14] | Plant response rating, Pigweed [4, 15] | Plant response rating, Kochia (kochia (Kochia scoparia); [12]) | Plant response rating, Kochia (kochia (Kochia scoparia); [13]) | Kochia plant response rating (kochia (Kochia scoparia); [14]) | Plant response rating, Kochia (kochia (Kochia scoparia); [15]) | Plant response rating, Velvetleaf [6, 18] | Plant response rating, Velvetleaf [6, 21] | Velvetleaf plant response rating [6, 22] | Morningglory plant response rating [7, 17] | Plant response rating, Morningglory [7, 18] | Morningglory plant response rating [7, 23] | Plant response rating, Ryegrass, Italian [8, 20] | Plant response rating, Ryegrass, Italian [8, 21] | Ryegrass, Italian plant response rating [8, 22] | Plant response rating, Pigweed [9, 21] | Pigweed plant response rating [9, 22]
20: Plant response rating, Blackgrass [5, 16]
80: Velvetleaf plant response rating [6, 17] | Plant response rating, Pigweed [9, 16]
10: Plant response rating, Blackgrass [5, 18] | Plant response rating, Corn (corn (Zea mays); [21]) | Ryegrass, Italian plant response rating [8, 17]
35: Ryegrass, Italian plant response rating [8, 23]
85: Plant response rating, Velvetleaf [6, 20] | Plant response rating, Morningglory [7, 19]
30: Plant response rating, Wheat [1, 10] | Plant response rating, Wheat [1, 11]
50: Blackgrass plant response rating [5, 17] | Plant response rating, Blackgrass [5, 19]
5: Plant response rating, Corn (corn (Zea mays); [16]) | Plant response rating, Ryegrass, Italian [8, 16]
55: Plant response rating, Blackgrass [5, 20]
15: Plant response rating, Corn (corn (Zea mays); [18]) | Corn plant response rating (corn (Zea mays); [22]) | Corn plant response rating (corn (Zea mays); [23])
70: Plant response rating, Foxtail, Giant [2, 12] | Plant response rating, Velvetleaf [6, 16] | Plant response rating, Pigweed [9, 19]
95: Velvetleaf plant response rating [6, 23] | Plant response rating, Morningglory [7, 21] | Plant response rating, Ryegrass, Italian [8, 19] | Pigweed plant response rating [9, 17]
90: Blackgrass plant response rating [5, 22] | Plant response rating, Morningglory [7, 20]
60: Foxtail, Giant plant response rating [2, 14] | Plant response rating, Pigweed [4, 12] | Plant response rating, Blackgrass [5, 21] | Blackgrass plant response rating [5, 23] | Plant response rating, Velvetleaf [6, 19] | Plant response rating, Ryegrass, Italian [8, 18]
98: Plant response rating, Morningglory [7, 16] | Morningglory plant response rating [7, 22] | Plant response rating, Pigweed [9, 18] | Plant response rating, Pigweed [9, 20] | Pigweed plant response rating [9, 23]
0: Corn plant response rating (corn (Zea mays); [17]) | Plant response rating, Corn (corn (Zea mays); [19]) | Plant response rating, Corn (corn (Zea mays); [20])
